According to the supplement of paper PMC13380429:

Key:
Settings in all cases: 72 h
Vero E6 [1] = assay: cell viability relative to DMSO; higher = less toxic
U2OS [2] = assay: as above
HepG2 [3] = assay: as above
Caco-2 [4] = assay: as above
Calu-3 [5] = assay: as above
Vero E6 [6] = assay: drug sensitivity score (DSS) for viability; higher = more toxic; extreme values may be limits of the assay
U2OS [7] = assay: as above
HepG2 [8] = assay: as above
Caco-2 [9] = assay: as above
Calu-3 [10] = assay: as above
Vero E6 [11] = assay: relative viability EC50 (midpoint between 100% and the lowest measured viability); higher = less toxic
U2OS [12] = assay: as above
HepG2 [13] = assay: as above
Caco-2 [14] = assay: as above
Calu-3 [15] = assay: as above

| Structure (SMILES) | cell viability (Vero E6 [1]; 1 nM) [%] | cell viability (Vero E6 [1]; 10 nM) [%] | cell viability (Vero E6 [1]; 100 nM) [%] | cell viability (Vero E6 [1]; 1000 nM) [%] | cell viability (Vero E6 [1]; 10000 nM) [%] | cell viability (U2OS [2]; 1 nM) [%] | cell viability (U2OS [2]; 10 nM) [%] | cell viability (U2OS [2]; 100 nM) [%] | cell viability (U2OS [2]; 1000 nM) [%] | cell viability (U2OS [2]; 10000 nM) [%] | cell viability (HepG2 [3]; 1 nM) [%] | cell viability (HepG2 [3]; 10 nM) [%] | cell viability (HepG2 [3]; 100 nM) [%] | cell viability (HepG2 [3]; 1000 nM) [%] | cell viability (HepG2 [3]; 10000 nM) [%] | cell viability (Caco-2 [4]; 1 nM) [%] | cell viability (Caco-2 [4]; 10 nM) [%] | cell viability (Caco-2 [4]; 100 nM) [%] | cell viability (Caco-2 [4]; 1000 nM) [%] | cell viability (Caco-2 [4]; 10000 nM) [%] | cell viability (Calu-3 [5]; 1 nM) [%] | cell viability (Calu-3 [5]; 10 nM) [%] | cell viability (Calu-3 [5]; 100 nM) [%] | cell viability (Calu-3 [5]; 1000 nM) [%] | cell viability (Calu-3 [5]; 10000 nM) [%] | drug sensitivity score (Vero E6 [6]) | drug sensitivity score (U2OS [7]) | drug sensitivity score (HepG2 [8]) | drug sensitivity score (Caco-2 [9]) | drug sensitivity score (Calu-3 [10]) | relative viability EC50 (Vero E6 [11]) [µM] | relative viability EC50 (U2OS [12]) [µM] | relative viability EC50 (HepG2 [13]) [µM] | relative viability EC50 (Caco-2 [14]) [µM] | relative viability EC50 (Calu-3 [15]) [µM] |
| --- | --- | --- | --- | --- | --- | --- | --- | --- | --- | --- | --- | --- | --- | --- | --- | --- | --- | --- | --- | --- | --- | --- | --- | --- | --- | --- | --- | --- | --- | --- | --- | --- | --- | --- | --- |
| C/C(=N\NC(=O)C(NC(=O)c1ccccc1)c1n[nH]c(=O)c2ccccc12)c1cccc(Br)c1 (stereo not given) | 88.3 | 97.9 | 97.4 | 100 | 104 | 99.5 | 97 | 100 | 102 | 100 | 97.7 | 94.2 | 98.1 | 95.4 | 106 | 101 | 102 | 106 | 95.8 | 100 | 95.7 | 113 | 100 | 107 | 108 | 0 | 0 | 0 | 0 | 0 | > 10 | > 10 | > 10 | > 10 | > 10 |
| CCc1cc(O)c(Oc2ccc(C(N)=O)cc2F)cc1F | 102 | 98.2 | 99.8 | 104 | 100 | 104 | 99.9 | 102 | 102 | 102 | 110 | 94.1 | 93 | 103 | 97.4 | 107 | 99 | 104 | 97.9 | 101 | 106 | 97.8 | 95.3 | 98.6 | 89.3 | 0 | 0 | 0 | 0 | 0 | > 10 | > 10 | > 10 | > 10 | > 10 |
| COc1ccc(Br)cc1S(=O)(=O)NC(=O)/C=C/c1ccccc1Cc1ccc2ccccc2c1 | 96 | 98.6 | 95.3 | 90.8 | 101 | 99.9 | 98.3 | 94.4 | 98.9 | 95.8 | 96.4 | 96.5 | 95.8 | 98.9 | 102 | 104 | 94 | 99.1 | 97.8 | 87.5 | 94.2 | 106 | 88 | 86.5 | 97.9 | 0 | 0 | 0 | 0.1 | 1.7 | > 10 | > 10 | > 10 | > 10 | > 10 |
| Cc1cc(-c2cc(O)ccc2Cl)cc2nnc(Nc3ccc(OCCN4CCCC4)cc3)nc12 | 97.8 | 100 | 96.3 | 94 | 0 | 104 | 104 | 106 | 80 | 0 | 94.5 | 97.3 | 106 | 96.6 | 0 | 94 | 94.7 | 101 | 82.5 | 0.3 | 100 | 94.8 | 101 | 93.8 | 0.1 | 6.4 | 8.7 | 6 | 8.4 | 6.5 | 2.69 | 1.74 | 2.92 | 1.85 | 2.67 |
| C[C@@H]1c2ccccc2CN1CC1=NCCN1 (racemic) | 95.9 | 97.8 | 95.4 | 92.9 | 102 | 97.4 | 94.8 | 101 | 96.3 | 104 | 100 | 86.9 | 109 | 116 | 116 | 100 | 92.4 | 89.9 | 100 | 121 | 107 | 96.5 | 102 | 108 | 114 | 0 | 0 | 0 | 0 | 0 | > 10 | > 10 | > 10 | > 10 | > 10 |
| O=C(NCc1ccc(F)cc1)N1CCN2C(=O)OC(c3ccccc3)(c3ccccc3)[C@@H]2C1 (racemic) [SHA-68] | 97.1 | 96.8 | 98.3 | 102 | 100 | 101 | 95.6 | 100 | 96.6 | 96.8 | 100 | 102 | 98 | 107 | 110 | 101 | 101 | 89.1 | 93.6 | 85 | 99.7 | 110 | 104 | 100 | 97.2 | 0 | 0 | 0 | 0.5 | 0 | > 10 | > 10 | > 10 | > 10 | > 10 |
| CCS(=O)(=O)N(C)[C@@H]1c2cc(C#N)ccc2OC(C)(C)[C@H]1O.CCS(=O)(=O)N(C)[C@H]1c2cc(C#N)ccc2OC(C)(C)[C@@H]1O (racemic) [chromanol-(+/-)] | 101 | 102 | 101 | 103 | 95.6 | 100 | 96.9 | 102 | 96.2 | 102 | 106 | 105 | 100 | 96.7 | 94.6 | 90.9 | 89.9 | 100 | 106 | 93.5 | 103 | 99.8 | 92.5 | 102 | 97.5 | 0 | 0 | 0 | 0 | 0 | > 10 | > 10 | > 10 | > 10 | > 10 |
| Cc1ccc(Cl)c(OC[C@H](O)CNC(C)C)c1 [1-(2-chloro-5-methylphenoxy)-3-(isopropylamino)-2-propanol] | 104 | 103 | 95.9 | 104 | 92.8 | 104 | 97.2 | 101 | 106 | 101 | 93.5 | 100 | 108 | 104 | 103 | 95.1 | 101 | 99.1 | 91.1 | 94.8 | 96.6 | 101 | 103 | 108 | 102 | 0 | 0 | 0 | 0 | 0 | > 10 | > 10 | > 10 | > 10 | > 10 |
| CC(=O)N1CCN(C)CC1 [1-acetyl-4-methylpiperazine] | 105 | 104 | 104 | 98.2 | 95.9 | 103 | 99.1 | 96.2 | 99.8 | 102 | 104 | 111 | 101 | 99.5 | 100 | 100 | 93.6 | 101 | 95.7 | 97.3 | 89.8 | 86.6 | 95 | 100 | 93.8 | 0 | 0 | 0 | 0 | 0 | > 10 | > 10 | > 10 | > 10 | > 10 |
| COc1ccc2[nH]c(I)c(CCNC(C)=O)c2c1 [2-iodomelatonin] | 94.6 | 93.1 | 92.4 | 94.9 | 108 | 95.3 | 103 | 94.9 | 97.9 | 102 | 105 | 98.6 | 113 | 96.5 | 105 | 98.5 | 106 | 94.6 | 104 | 96.2 | 99.5 | 100 | 103 | 92.7 | 94.8 | 0 | 0 | 0 | 0 | 0 | > 10 | > 10 | > 10 | > 10 | > 10 |
| c1ccc([C@H]2CNCc3ccccc32)cc1 [4-phenyl-1,2,3,4-tetrahydroisoquinoline] | 96.7 | 99.4 | 100 | 99.6 | 98.8 | 99.9 | 101 | 94.1 | 94.9 | 100 | 101 | 91.7 | 103 | 104 | 96.7 | 98.1 | 109 | 97.3 | 103 | 103 | 101 | 109 | 92.3 | 102 | 105 | 0 | 0 | 0 | 0 | 0 | > 10 | > 10 | > 10 | > 10 | > 10 |
| CC(C)N(CC[C@H](c1ccccc1)c1cc(CO)ccc1O)C(C)C [5-hydroxymethyl-tolterodine] | 95.7 | 96.2 | 96.6 | 98.2 | 101 | 101 | 99.1 | 105 | 91.8 | 95.9 | 104 | 91.6 | 102 | 96.5 | 112 | 89 | 87.9 | 108 | 102 | 99.6 | 104 | 89.3 | 96.7 | 98.6 | 99.3 | 0 | 0 | 0 | 0 | 0 | > 10 | > 10 | > 10 | > 10 | > 10 |
| COc1cc(N2CCC(N)CC2)ccc1Nc1ncc(Cl)c(-c2c[nH]c3ccccc23)n1 [AZD3463] | 104 | 100 | 102 | 87.1 | 4.5 | 93.5 | 101 | 95.1 | 69.2 | 2.6 | 102 | 102 | 78.1 | 41.6 | 12.7 | 103 | 98.2 | 99.6 | 64.3 | 34.9 | 97.2 | 88.9 | 95.1 | 81.8 | 9.4 | 7.4 | 9.6 | 13.6 | 8 | 8 | 2.08 | 1.39 | 0.402 | 0.923 | 1.73 |
| O=C(O)C[C@H]1CC[C@H](c2ccc(NC(=O)c3nnc(Nc4ccc(F)c(F)c4)o3)cc2)CC1 [AZD3988] | 97.9 | 97.4 | 95.2 | 95.3 | 101 | 99.7 | 98.8 | 97.2 | 103 | 94.7 | 110 | 105 | 103 | 93 | 102 | 99 | 104 | 96.6 | 100 | 87.9 | 104 | 104 | 97.6 | 108 | 100 | 0 | 0 | 0 | 0 | 0 | > 10 | > 10 | > 10 | > 10 | > 10 |
